This is an account of results in patent publication US20030108576A1, “Composition” (Colgate-Palmolive Company, priority 2001, published 2003).

A short description of this data set: Vitamin E stability aging of the compositions in clear PET packaging. The data set is classed as physicochemical. Here is the method: Samples of each example are put on stability aging using clear PET packaging at room temperature, 77° F.; high temperature, 110° F.; and in the window for natural sunlight exposure. Samples are evaluated for vitamin content initially, then again at 4,8, and 13 weeks. Below are the results.

For the molecule `CC(C)(C)c1cc(O)ccc1O` [2-tertiary butyl hydroquinone], the “retention of vitamin E compared with other antioxidants” value (77° F. and 110° F.) is on record as “essentially equivalent to the other antioxidants”. Moreover, the “retention of vitamin E in sunlight compared with other test antioxidants” value (sunlight) was “substantially more retention of vitamin E in sunlight than any of the other test antioxidants”.
